Measurements reported in patent US20250115569A1, “SULFONAMIDE COMPOUNDS FOR THE TREATMENT OF NEUROLOGICAL CONDITIONS” (LARIO THERAPEUTICS LIMITED, priority 2021, published 2025).

Tested on: Human Cav2.3 channel
Assay: Human Cav2.3 channel calcium-influx assay
Assay type: cell-based
Conditions: Fluo8 fluorescence, HEK-293 T-Rex/Kir2.1/Cav2.3e cells, without pluronic acid
How it was run: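 HEK-293 T-Rex/Kir2.1 cells with doxycycline (0.2 μg/mL)-inducible Cav2.3e plus Cavβ4-α2δ1, loaded with Fluo8 NW in 0 mM K+ Tyrode's. Compounds (8 points, top 30 μM, half-log, 0.3% final DMSO, n=4) preincubated 3 min at RT, then depolarized with 20 mM KCl/2 mM CaCl2 (final); fluorescence read 130 s.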

Cav2.3 (pIC50)	SMILES
6.18	CCN([C@H](c1ccc(F)cc1)C(F)(F)F)S(=O)(=O)c1ccc2nncn2n1 [Example 192, (R)—N-ethyl-N-(2,2,2-trifluoro-1-(4-fluorophenyl)ethyl)-[1,2,4]triazolo[4,3-b]pyridazine-6-sulfonamide]
6.65	CN([C@H](c1ccc(Cl)cc1)C(F)(F)F)S(=O)(=O)c1cnc2[nH]cnc2c1 [Example 193, (R)—N-(1-(4-chlorophenyl)-2,2,2-trifluoroethyl)-N-methyl-3H-imidazo[4,5-b]pyridine-6-sulfonamide]
5.89	CN([C@H](c1ccc(Cl)cc1)C(F)(F)F)S(=O)(=O)c1ccc2nncn2n1 [Example 205, (R)—N-(1-(4-chlorophenyl)-2,2,2-trifluoroethyl)-N-methyl-[1,2,4]triazolo[4,3-b]pyridazine-6-sulfonamide]
6.60	CN([C@H](c1ccc(Cl)cc1)C(F)F)S(=O)(=O)c1cncc(C#N)c1 [Example 206, (R)—N-(1-(4-chlorophenyl)-2,2-difluoroethyl)-5-cyano-N-methylpyridine-3-sulfonamide]
6.02	COc1ccc(S(=O)(=O)N(C)[C@H](c2ccc(Cl)cc2)C(F)(F)F)nn1 [Example 207, (R)—N-(1-(4-chlorophenyl)-2,2,2-trifluoroethyl)-6-methoxy-N-methylpyridazine-3-sulfonamide]
6.85	CN([C@H](c1ccc(Cl)cc1)C(F)(F)F)S(=O)(=O)c1cnc2cccnn12 [Example 210, (R)—N-(1-(4-chlorophenyl)-2,2,2-trifluoroethyl)-N-methylimidazo[1,2-b]pyridazine-3-sulfonamide]
7.17	CN([C@H](c1ccc(C(F)(F)F)cc1)C(F)(F)F)S(=O)(=O)c1cnc2cccnn12 [Example 211, (R)—N-methyl-N-(2,2,2-trifluoro-1-(4-(trifluoromethyl)phenyl)ethyl)imidazo[1,2-b]pyridazine-3-sulfonamide]
6.80	CCN([C@H](c1ccc(C(F)(F)F)cc1)C(F)(F)F)S(=O)(=O)c1cnc2cccnn12 [Example 212, (R)—N-ethyl-N-(2,2,2-trifluoro-1-(4-(trifluoromethyl)phenyl)ethyl)imidazo[1,2-b]pyridazine-3-sulfonamide]
6.07	CN([C@@H](CF)c1ccc(Cl)cc1)S(=O)(=O)c1cncc(C#N)c1 [Example 213, (R)—N-(1-(4-chlorophenyl)-2-fluoroethyl)-5-cyano-N-methylpyridine-3-sulfonamide]
6.95	CN([C@H](c1ccc(C(F)(F)F)cc1)C(F)(F)F)S(=O)(=O)c1cnc2ncccn12 [Example 214, (R)—N-methyl-N-(2,2,2-trifluoro-1-(4-(trifluoromethyl)phenyl)ethyl)imidazo[1,2-a]pyrimidine-3-sulfonamide]
7.15	CN([C@H](c1ccc(C(F)(F)F)cc1)C(F)(F)F)S(=O)(=O)c1ccn2ncnc2c1 [Example 215, (R)—N-methyl-N-(2,2,2-trifluoro-1-(4-(trifluoromethyl)phenyl)ethyl)-[1,2,4]triazolo[1,5-a]pyridine-7-sulfonamide]
7.29	CCN([C@H](c1ccc(C(F)(F)F)cc1)C(F)(F)F)S(=O)(=O)c1ccn2ncnc2c1 [Example 216, (R)—N-ethyl-N-(2,2,2-trifluoro-1-(4-(trifluoromethyl)phenyl)ethyl)-[1,2,4]triazolo[1,5-a]pyridine-7-sulfonamide]
6.85	CN([C@H](c1ccc(C(F)(F)F)cc1)C(F)(F)F)S(=O)(=O)c1cncc(F)c1 [Example 224, (R)-5-fluoro-N-methyl-N-(2,2,2-trifluoro-1-(4-(trifluoromethyl)phenyl)ethyl)pyridine-3-sulfonamide]
6.79	Cc1ccc([C@@H](N(C)S(=O)(=O)c2cncnc2)C(F)(F)F)cc1 [Example 226, (R)—N-methyl-N-(2,2,2-trifluoro-1-(p-tolyl)ethyl)pyrimidine-5-sulfonamide]
6.93	COc1cc(S(=O)(=O)N(C)[C@H](c2ccc(Cl)cc2)C(F)(F)F)cnn1 [Example 229, (R)—N-(1-(4-chlorophenyl)-2,2,2-trifluoroethyl)-6-methoxy-N-methylpyridazine-4-sulfonamide]
7.00	CN([C@H](c1ccc(Cl)cc1)C(F)(F)F)S(=O)(=O)c1cnc2ncccn12 [Example 230, (R)—N-(1-(4-chlorophenyl)-2,2,2-trifluoroethyl)-N-methylimidazo[1,2-a]pyrimidine-3-sulfonamide]
5.91	CN([C@H](c1ccc(C(F)(F)F)cc1)C(F)(F)F)S(=O)(=O)c1ccc2ncc(Cl)n2c1 [Example 233, (R)-3-chloro-N-methyl-N-(2,2,2-trifluoro-1-(4-(trifluoromethyl)phenyl)ethyl)imidazo[1,2-a]pyridine-6-sulfonamide]
6.38	CN([C@H](c1ccc(C(F)(F)F)cc1)C(F)(F)F)S(=O)(=O)c1ccc2nccn2c1 [Example 234, (R)—N-methyl-N-(2,2,2-trifluoro-1-(4-(trifluoromethyl)phenyl)ethyl)imidazo[1,2-a]pyridine-6-sulfonamide]

Cav2.3 (pIC50)	SMILES
7.33	CN([C@H](c1ccc(C(F)(F)F)cc1)C(F)(F)F)S(=O)(=O)c1ccn2ccnc2c1 [Example 236, (R)—N-methyl-N-(2,2,2-trifluoro-1-(4-(trifluoromethyl)phenyl)ethyl)imidazo[1,2-a]pyridine-7-sulfonamide]
5.19	CCN(C(c1ccc(F)cc1F)C(F)(F)F)S(=O)(=O)c1cncc(C#N)c1 (centres unmarked) [Example 243, 5-cyano-N-(1-(2,4-difluorophenyl)-2,2,2-trifluoroethyl)-N-ethylpyridine-3-sulfonamide]
5.84	CCN(C(c1ccc(F)cc1F)C(F)(F)F)S(=O)(=O)c1cncc(C#N)c1 (centres unmarked) [Example 244, 5-cyano-N-(1-(2,4-difluorophenyl)-2,2,2-trifluoroethyl)-N-ethylpyridine-3-sulfonamide]
5.70	CCN([C@@H](c1ccc(F)c(C)c1)C(F)(F)F)S(=O)(=O)c1cncc(C#N)c1 [Example 245, (S)-5-cyano-N-ethyl-N-(2,2,2-trifluoro-1-(4-fluoro-3-methylphenyl)ethyl)pyridine-3-sulfonamide]
7.31	CCN([C@H](c1ccc(F)c(C)c1)C(F)(F)F)S(=O)(=O)c1cncc(C#N)c1 [Example 246, (R)-5-cyano-N-ethyl-N-(2,2,2-trifluoro-1-(4-fluoro-3-methylphenyl)ethyl)pyridine-3-sulfonamide]
5.11	CCN([C@@H](c1ccccc1C(F)(F)F)C(F)(F)F)S(=O)(=O)c1cncc(C#N)c1 [Example 247, (S)-5-cyano-N-ethyl-N-(2,2,2-trifluoro-1-(2-(trifluoromethyl)phenyl)ethyl)pyridine-3-sulfonamide]
5.14	CCN([C@H](c1ccccc1C(F)(F)F)C(F)(F)F)S(=O)(=O)c1cncc(C#N)c1 [Example 248, (R)-5-cyano-N-ethyl-N-(2,2,2-trifluoro-1-(2-(trifluoromethyl)phenyl)ethyl)pyridine-3-sulfonamide]
5.73	CCN([C@@H](c1ccc(F)c(F)c1)C(F)(F)F)S(=O)(=O)c1cncc(C#N)c1 [Example 249, (S)-5-cyano-N-(1-(3,4-difluorophenyl)-2,2,2-trifluoroethyl)-N-ethylpyridine-3-sulfonamide]
7.14	CCN([C@H](c1ccc(F)c(F)c1)C(F)(F)F)S(=O)(=O)c1cncc(C#N)c1 [Example 250, (R)-5-cyano-N-(1-(3,4-difluorophenyl)-2,2,2-trifluoroethyl)-N-ethylpyridine-3-sulfonamide]
7.18	CCN([C@H](c1cccc(Cl)c1)C(F)(F)F)S(=O)(=O)c1cncc(C#N)c1 [Example 251, (R)—N-(1-(3-chlorophenyl)-2,2,2-trifluoroethyl)-5-cyano-N-ethylpyridine-3-sulfonamide]
5.71	CCN([C@@H](c1cccc(Cl)c1)C(F)(F)F)S(=O)(=O)c1cncc(C#N)c1 [Example 252, (S)—N-(1-(3-chlorophenyl)-2,2,2-trifluoroethyl)-5-cyano-N-ethylpyridine-3-sulfonamide]
5.56	CCN([C@@H](c1ccc(F)c(Cl)c1)C(F)(F)F)S(=O)(=O)c1cncc(C#N)c1 [Example 253, (S)—N-(1-(3-chloro-4-fluorophenyl)-2,2,2-trifluoroethyl)-5-cyano-N-ethylpyridine-3-sulfonamide]
7.33	CCN([C@H](c1ccc(F)c(Cl)c1)C(F)(F)F)S(=O)(=O)c1cncc(C#N)c1 [Example 254, (R)—N-(1-(3-chloro-4-fluorophenyl)-2,2,2-trifluoroethyl)-5-cyano-N-ethylpyridine-3-sulfonamide]
6.96	CN(C(c1ccc(C(F)(F)F)c(F)c1)C(F)(F)F)S(=O)(=O)c1cncc(C#N)c1 (centres unmarked) [Example 255, 5-cyano-N-methyl-N-(2,2,2-trifluoro-1-(3-fluoro-4-(trifluoromethyl)phenyl)ethyl)pyridine-3-sulfonamide]
5.87	CCN([C@@H](c1ccc(F)c(OC)c1)C(F)(F)F)S(=O)(=O)c1cncc(C#N)c1 [Example 258, (S)-5-cyano-N-ethyl-N-(2,2,2-trifluoro-1-(4-fluoro-3-methoxyphenyl)ethyl)pyridine-3-sulfonamide]
6.61	CCN([C@H](c1ccc(F)c(OC)c1)C(F)(F)F)S(=O)(=O)c1cncc(C#N)c1 [Example 259, (R)-5-cyano-N-ethyl-N-(2,2,2-trifluoro-1-(4-fluoro-3-methoxyphenyl)ethyl)pyridine-3-sulfonamide]
4.96	CCN(C(c1ncc(C)s1)C(F)(F)F)S(=O)(=O)c1cncc(C#N)c1 (centres unmarked) [Example 264, 5-Cyano-N-ethyl-N-(2,2,2-trifluoro-1-(5-methylthiazol-2-yl)ethyl)pyridine-3-sulfonamide]
